Values of other authors as cited in PMC9901186 (bioRxiv, 2023).

Tested on: NOD1

For `CCCCCCCCCCCC(=O)N[C@H](CCC(=O)NC(CCCC(N)C(=O)O)C(=O)O)C(=O)O` (stereo partly shown) [C12-iE-DAP], the “greater activation of NOD1-dependent NF-κB reporter relative to iE-DAP” value is given as ~ 100 fold.
